The text below walks through data of the METLIN SMRT retention time set (Domingo-Almenara et al. 2019).

The nature of the series: gradient 5% acetonitrile 3 min, to 50% in 2 min, to 85% in 15 min, held 3 min, 100 µL/min. As to conditions: column: Zorbax Extend-C18 2.1 x 50 mm; eluents: water / acetonitrile, 0.1% formic acid. An outline of the steps:
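Using water and acetonitrile that each contained 0.1% formic acid, mixtures of ~100 pure standards were separated at 100 μL/min on a Zorbax Extend-C18 column (2.1 × 50 mm, 1.8 μm). The HPLC fed a quadrupole time-of-flight mass spectrometer working in positive and negative ionization mode, with dead and dwell volumes of 40 μL and 900 μL. Data were acquired over 3 months. Retention time was read from computationally picked adduct peaks after manual inspection of each.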
On to `COc1ccc(NC(=O)NCC(=O)N2CCc3ccccc32)c(OC)c1`, for which the RP-LC retention time worked out at 762 s.
For `CCN1C(=O)C(C)(C(=O)Nc2ccccc2F)Oc2cccnc21` (stereo not given), the RP-LC retention time was determined as 855 s.
On to `CC1(C(=O)NCc2ccccc2)Cn2cnc(C(=O)N3CCOCC3)c2C(=O)N1C1CC1` (stereo not given), for which the RP-LC retention time worked out at 605 s.
For `CCc1nnc(C2CN(C)CC23CCN(S(=O)(=O)c2ccccc2C)CC3)o1` (stereo not given), the RP-LC retention time came out at 627 s.
As for `CCCNS(=O)(=O)c1ccc(Cl)c(-c2nnc(-c3ccc(OC)cc3)o2)c1`, the figure is 1010 s.
For `CC(C)COc1ccc(C(=O)N(Cc2ccc(Br)o2)C2CCS(=O)(=O)C2)cc1` (stereo not given), the RP-LC retention time was 1050 s.
`CCOC(=O)c1c(C)oc2ncnc(Nc3cc(Cl)ccc3OC)c12` showed an RP-LC retention time of 1360 s.
On to `COCCn1cc(CCNC(=O)Nc2cccc(C)c2)c2cccnc21`, for which the RP-LC retention time was 728 s.
`CC1CCCCN1CCNC(=O)c1ccc2ccnc(N3CCN(c4ccc(Cl)cc4)CC3)c2c1` (stereo not given) returned an RP-LC retention time of 664 s.
On to `CCOc1ccccc1C(=O)Nc1ccc2c(c1)Sc1ncccc1C(=O)N2C(C)C`, for which the RP-LC retention time is 871 s.
The result for `O=C(c1ccsc1)N1[C@H]2CC[C@@H]1c1cnc(-c3ccc(F)cc3)nc1C2` reads 952 s.
Take `COCCN(CC1(C)CCOCC1)C(=O)c1ccc(Cl)cc1`: the RP-LC retention time is 838 s.
The result for `O/N=C(\CC(O)(C(F)(F)F)C(F)(F)F)c1cccc(Cl)c1` reads 944 s.
`O=C1CC(/C=C/c2ccccc2)Cc2nc(N3CCN(c4ncccn4)CC3)ncc21` (stereo not given): the RP-LC retention time came out at 1130 s.
`Fc1ccc(CN2CCC3(CC2)N=C(C2CC2)NO3)cc1` returned an RP-LC retention time of 583 s.
The result for `Cc1nc(-c2csc(S(=O)(=O)N3CCCC(C(=O)Nc4ccc(C(C)C)cc4)C3)c2)no1` (stereo not given) reads 1090 s.
`N[C@@H](Cc1cc(CP(=O)(O)O)cc(-c2ccccc2Cl)c1)C(=O)O` had an RP-LC retention time of 647 s.
Compound `CCOc1nc2ccccc2nc1N1CCCC(C(=O)N2CCOCC2)C1` (stereo not given) had an RP-LC retention time of 983 s.
`Cc1ccc(CN(C)Cc2cc(=O)n3ccccc3n2)cc1` displayed an RP-LC retention time of 606 s.
Compound `N#Cc1cccc(C(=O)NC2CCN(c3cc(-c4ccc(F)cc4)[nH]n3)C2)c1` (stereo not given) gave an RP-LC retention time of 712 s.
Compound `O=C(CN1CCCCC1c1nc(-c2cccc(F)c2)no1)NCc1cccs1` (stereo not given) displayed an RP-LC retention time of 1060 s.
In turn, `CCCN1C(=O)CCc2cc(NS(=O)(=O)c3cccs3)ccc21` came in with an RP-LC retention time of 797 s.
With `COc1ccc(C2c3[nH]c4ccccc4c3CCN2C(=O)Cc2cccs2)cc1` (stereo not given), the RP-LC retention time turned out to be 1110 s.
In the case of `Cc1noc(C)c1CCNC(=O)Cn1c2ccccc2c2cnn(C)c(=O)c21`, the RP-LC retention time was determined as 706 s.
`CC(C)Cn1nc2n(c1=O)CCN(S(=O)(=O)c1cccc3cccnc13)CC2` came in with an RP-LC retention time of 754 s.
In turn, `CC1=CC2=C(C=O)C(=O)[C@](C)(O)[C@@H](O)C2=CO1` displayed an RP-LC retention time of 636 s.
`CCN1C(=O)c2cccnc2Sc2cc(NC(=O)Cc3ccc(C)cc3)ccc21` yielded an RP-LC retention time of 855 s.
Compound `CN(C)C(=O)c1csc(S(=O)(=O)N2CCC(C(=O)NCc3ccc(F)cc3)CC2)c1` had an RP-LC retention time of 725 s.
Compound `O=C(OCCN1CCCCC1)c1c[nH]c2ccccc12` had an RP-LC retention time of 666 s.
For the compound `CCS(=O)(=O)Nc1ccc(-c2noc(COc3ccccc3)n2)cc1`, the RP-LC retention time is 923 s.
Regarding `CCS(=O)(=O)c1ccccc1C(=O)Nc1sc(-c2ccccc2)cc1C(N)=O`, the RP-LC retention time worked out at 814 s.
As for `O=C(Nc1ccccc1Br)N1CCc2nc[nH]c2C1`, the figure is 566 s; as for `COc1ccc(C2(C(=O)N3CCC4(CC3)CC(C)(O)CCO4)CC2)cc1` (stereo not given), 707 s; as for `Cc1cccc(N2CCN(C(=O)Cn3nc(C(=O)N4CCCC4)c4ccccc43)CC2)c1C`, 1020 s.
As for `CCCOc1ccc(C(=O)Nc2cnn(CC)c(=O)c2N2CCOCC2)cc1`, the figure is 954 s; as for `CC(C)n1c(=O)sc2cc(S(=O)(=O)N3CCC(C(=O)N4CCc5ccccc5C4)CC3)ccc21`, 1000 s; as for `COc1cccc(CNS(=O)(=O)c2ccc(-c3c(C)noc3C)cc2)c1`, 904 s.
For `O=C(c1cccs1)N1CCCCC1c1nncn1CC1CC1` (stereo not given), the RP-LC retention time was 690 s.
For `O=C(NCCN1CCN(C(=O)NCCCc2ccccc2)CC1)c1ccc2c(c1)OCO2`, the RP-LC retention time amounted to 581 s.
With `COc1ccc(NS(=O)(=O)c2ccc3c(c2)C(=O)N(C)c2ncccc2O3)cc1`, the RP-LC retention time was determined as 844 s.
The result for `CCC(=O)Nc1ccc(C2(C(=O)NC(C)CC)CCCCC2)cc1` (stereo not given) reads 845 s.
The compound `Cc1cc(-c2c(C)sc(C)c2S(=O)(=O)NCc2ccccc2Cl)n[nH]1` gave an RP-LC retention time of 1060 s.
The result for `CCCOc1nccnc1NC1CCN(C(=O)c2cccs2)CC1` reads 814 s; that for `CCc1ccc(-c2cc(C(=O)N3CCN(c4ncccn4)CC3)c3ccccc3n2)s1`, 1090 s; that for `O=C(NCCc1ccccc1)c1nnc(-c2ccc(S(=O)(=O)N3CCOCC3)cc2)o1`, 845 s.
`COc1ccc(NC(=O)NCC2(CO)CC2)cc1OC` came in with an RP-LC retention time of 581 s.
The result for `C/C(=C\C(=O)Nc1ccccc1C(=O)O)c1ccc2ccccc2c1` reads 1150 s; that for `CCCCC(CC)C(=O)Nc1nc(-c2ccc(C(C)C)cc2)cs1` (stereo not given), 1390 s; that for `Cc1sc(NC(=O)Cn2c(=O)sc3ccccc32)nc1-c1ccc(Cl)cc1`, 1110 s.
Compound `CC(=O)N1CCc2ccccc2C1C(=O)NCc1ccc(F)cc1` (stereo not given) came in with an RP-LC retention time of 762 s.
On to `COc1ccc(-c2cn3cccnc3n2)cc1NS(=O)(=O)c1ccc(C)cc1`, for which the RP-LC retention time was 690 s.
`COC(=O)Cn1c(C)cc(=O)n2nc(-c3ccccc3Cl)nc12` displayed an RP-LC retention time of 729 s.
In turn, `CCCN(CC1CCOC1)C(=O)c1cccc(Br)c1` (stereo not given) came in with an RP-LC retention time of 852 s.
As for `CCN1C(=O)c2ccccc2Oc2ccc(C(=O)N3CCC4(CC3)OCCO4)cc21`, the RP-LC retention time worked out at 770 s.
`COc1ccc(-c2noc(CN3C(=O)COc4ccccc43)n2)c(OC)c1`: the RP-LC retention time was found to be 887 s.
`CC(C)OC(=O)COc1cc(O)c2c(=O)cc(-c3ccccc3)oc2c1` came in with an RP-LC retention time of 1170 s.
As for `O=S(=O)(c1cc(-c2nnc(-c3ccc(F)cc3)o2)ccc1Cl)N1CCCCC1`, the figure is 1190 s; as for `Cc1nc(Nc2ccc(Cl)cn2)sc1C(=O)NCCN(C)C`, 602 s; as for `COc1ccc(-c2noc(C3CCCN3C(=O)c3cccnc3SC)n2)cc1` (stereo not given), 907 s.
Turning to `O=C(O)CSc1nnc(COc2cccc3cccnc23)n1-c1ccccc1`, the RP-LC retention time amounted to 577 s.
In the case of `COCCN(Cc1ccc(Cl)cc1)Cc1cc(=O)c2cccc(F)c2[nH]1`, the RP-LC retention time worked out at 983 s.
For the compound `CCc1ccc2c(c1)-c1ccccc1S(=O)(=O)N2CC(=O)NCc1cccnc1`, the RP-LC retention time was 684 s.
`CNC(=O)c1ccccc1Nc1nc(Nc2ccc(N3CCOCC3)cc2OC)ncc1Cl` yielded an RP-LC retention time of 722 s.
Take `O=C(c1cccc2[nH]ccc12)N1CCCC(c2n[nH]c(C3CC3)n2)C1` (stereo not given): the RP-LC retention time stood at 606 s.
`CCOC(=O)C1CCN(c2cc3c(cc2NC(=O)CCC2CCCC2)n(C)c(=O)c(=O)n3C)CC1`: the RP-LC retention time came to 999 s.
On to `CCN(CC)S(=O)(=O)c1ccc2c(c1)N(CC(=O)NCc1ccc(C)cc1)C(=O)C1CCCCN21` (stereo not given), for which the RP-LC retention time stood at 1030 s.
Consider `Cc1ccc(N2CCC(NC(=O)c3ccc(C#N)cc3)C2=O)cc1C` (stereo not given), for which the RP-LC retention time was determined as 854 s.
Take `COc1ccc(-c2noc(C3CC(=O)N(c4cccc(Cl)c4)C3)n2)cc1OC` (stereo not given): the RP-LC retention time amounted to 934 s.
The result for `CCc1nc2cc3c(cc2n1CC(=O)N1C(C)CCCC1C)OCCO3` (stereo not given) reads 668 s; that for `Cn1c(=O)n(C2CCN(C(=O)Cc3ccsc3)CC2)c2ncncc21`, 630 s; that for `Cc1nnsc1C(=O)N1CCc2nc(NC(=O)c3ccco3)sc2C1`, 636 s.
`CCOc1ccc(C(=O)N2CCN(c3cc(-c4ccc(Cl)cc4)[nH]n3)CC2)cc1OCC` gave an RP-LC retention time of 916 s.
For the compound `O=C(NCc1cc(F)ccc1F)c1ccc2ncnc(N3CCCCC3)c2c1`, the RP-LC retention time is 671 s.
Take `CCc1nc2c(c(=O)n1CC(=O)NCc1ccc(F)cc1)CN(Cc1ccccc1)CC2`: the RP-LC retention time was 649 s.
`CN1CCC(OC(c2ccccc2)c2ccccc2)CC1`: the RP-LC retention time amounted to 760 s.
`CCN(CC)c1nc(C(=O)NCc2ccncc2)nc2nc(C)cc(C)c12` showed an RP-LC retention time of 511 s.
`Cc1cc(C)cc(Nc2c(-c3cccc(O)c3)nc3ncccn23)c1` returned an RP-LC retention time of 719 s.
As for `Cc1cc2nn(CC(=O)NC3CCCCC3)c(=O)n2c(-c2ccccc2)n1`, the figure is 764 s; as for `COc1ccc(OC)c(NC(=O)c2cc3c(n(-c4ccc(F)cc4)c2=O)CCCC3=O)c1`, 930 s; as for `COc1cccc(CNc2nccc(-n3nc(C)cc3C)n2)c1`, 808 s.
